The target of assay [1] is Histone deacetylase. Briefly: Concentration required to inhibit Histone Deacetylase (HDAC) from K562 erythroleukemia cells. It counts as cell-based, Homo sapiens.
For assay [2], the system named is HT-1080. Briefly: Concentration required for the antiproliferation of Human HT1080 fibrosarcoma cells. It counts as functional, cell-based.
A short description of assay [3]: cells. It counts as functional. The settings on record: Homo sapiens, MDA435.
Description: Concentration required for the antiproliferation of Human MDA-435 breast carcinoma cells

A word on the IC50: it is the concentration that inhibits the measured activity by half. A high value points to weaker potency. Regarding `O=C(CCCCCNC(=O)[C@H](Cc1ccccc1)N1CCCC1=O)NO`, the IC50 in assay [1] is over 5000 nM.

Turning to `CCC[C@H]1C(=O)N([C@@H](Cc2ccc(OC)cc2)C(=O)NCCCCCC(=O)NO)C(=O)[C@@H]1CC(C)C`, the IC50 in assay [2] came to 530 nM; in assay [1], 38 nM; in assay [3], 180 nM.

On to `CC(C)C[C@H]1C(=O)N([C@@H](Cc2ccccc2)C(=O)NCCCCCC(=O)NO)C(=O)C12CCCC2`, for which the half-maximal inhibitory concentration (IC50) in assay [2] was determined as 1500 nM; in assay [1], 66 nM; in assay [3], 700 nM.

`CC(C)C[C@@H]1CC(=O)N([C@@H](CC2CCCCC2)C(=O)NCCCCCC(=O)NO)C1=O` showed an IC50 in assay [1] of 640 nM. That is a sub-micromolar value.

With `CC(C)C[C@@H]1CC(=O)N(CC(=O)NCCCCCC(=O)NO)C1=O`, the IC50 in assay [1] amounted to 5000 nM.

Turning to `CCC[C@H]1C(=O)N([C@@H](Cc2ccccc2)C(=O)NCCCCCC(=O)NO)C(=O)[C@@H]1CC(C)C`, the IC50 in assay [2] was 400 nM; in assay [1], 51 nM; in assay [3], 570 nM.

As for `CC(C)C[C@H]1C(=O)N2C[C@@H]1CCCCCOc1ccc(cc1)C[C@H]2C(=O)NCCCCCC(=O)NO`, the IC50 amounted to 250 nM in assay [2], 38 nM in assay [1] and 150 nM in assay [3].

On to `CC(C)C[C@H]1CN[C@H](C(=O)NCCCCCC(=O)NO)Cc2ccc(cc2)OCCCCC[C@H]1C(=O)OC(C)(C)C`, for which the IC50 in assay [1] is given as 2.1 nM.

In the case of `O=C(CCCCCNC(=O)[C@H](Cc1ccccc1)N1C(=O)CCC1=O)NO`, the concentration for half-maximal inhibition (IC50) is 14000 nM in assay [2], 660 nM in assay [1] and 10000 nM in assay [3].

Turning to `CC(C)C[C@@H]1CC(=O)N([C@@H](Cc2ccccc2)C(=O)NCCCCCC(=O)NO)C1=O`, the IC50 in assay [2] came to 2300 nM; in assay [1], 99 nM; in assay [3], 670 nM.

In assay [1], `CNCC(=O)[C@@H](Cc1ccccc1)NC(=O)CCCCCCC(=O)NO` gave an IC50 of 1400 nM.

Values taken from ChEMBL document CHEMBL1135210, “Succinimide hydroxamic acids as potent inhibitors of histone deacetylase (HDAC)” (Bioorg Med Chem Lett, 2002).
